One data set deals with MCF-7/ADR cells. Description: MTT cytotoxicity of taxol with P-gp inhibitors at 10% or 50% FCS in MCF-7/ADR cells. The data set is classed as cell-based, human. The note with it: for Resistance of MCF-7/ADR cells: MA Russell and DR Ferry, unpublished data; for EC50: Homo sapiens, NCI/ADR-RES.
The test system of data set [1] is MES-Dx5 cells. Description: MTT dye-based cytotoxicity assay, 72-h exposure, P-gp-expressing MES-Dx5 cells. The data set is classed as cell-based, human. The following applies: for EC50: Homo sapiens, read-out: EC50 of cytotoxic drug in MES-Dx5 cells; for EC50 / Resistance factor (RF) of MES-Dx5 relative to MES-SA cells: MTT. On the technique in general: Tetrazolium dyes change colour on reduction, which living cells bring about.

Data set [2] has as its system MES-Dx5 cells. Description: Reversal of MES-Dx5 resistance to cytotoxics by P-gp inhibitor (MTT assay, % maximal shift). Format: cell-based, human. The following applies: for EC50: Homo sapiens, MES-Dx5, MTT 72 h.
The test system of data set [3] is MES-Dx5 cells. In words: Radiolabelled drug accumulation assay in MES-Dx5 cells. Format: cell-based, human. The following applies: for EC50: Homo sapiens, MES-Dx5, 4 h; for Accumulation deficit of MES-Dx5 relative to parental MES-SA cells: steady state.
The test system of data set [4] is P-gp. The description is as above. The data set is classed as cell-based, human. The following applies: human, MES-Dx5 cells (P-gp-expressing); read-out: EC50 for reversal of the accumulation deficit, range over all three radiolabelled cytotoxics.
Data set [5] has as its system MES-SA cells. Description: Radiolabelled drug accumulation assay in MES-SA cells. The data set is classed as cell-based, human. The following applies: data not shown.
In the next data set the test system is COR-L23 R. In words: Sensitization of MRP1-expressing COR-L23 R cells to doxorubicin. The data set is classed as cell-based. The following applies: 1 M (µM) GF120918, unpublished data.
The test system of data set [6] is P-gp. Set-up: method as in Hyafil et al, 1993. The note with it: ref Hyafil et al, 1993; cited from earlier work.
Data set [7] relates to P388/Dox leukaemia or C26 colon carcinoma. Set-up: method as in Hyafil et al, 1993. The following applies: single dose of GF120918; ref Hyafil et al, 1993; cited from earlier work.
In data set [8] the target is T1, P-gp in MES-Dx5 membranes (Homo sapiens, UniProt P08183).
Data set [9] addresses P-gp (Homo sapiens, UniProt P08183). Description: in vitro. The note with it: membrane preparations of MES-Dx5 cells (P-gp-expressing), MES-Dx5 membranes.
The target in data set [10] is T1, P-gp in MES-Dx5 membranes. Description: biochemical.
Data set [11] deals with MES-SA cells. In words: MTT dye-based cytotoxicity assay, 72-h exposure, parental MES-SA cells. The following applies: Homo sapiens, read-out: EC50 of cytotoxic drug in MES-SA cells.
Data set [12] concerns MCF-7 WT cells.
Data set [13] has as its system MCF-7 WT cells. In words: cells. The note with it: Homo sapiens, MCF7, 72 h.
The mark [14] stands for this setting: inhibition of [3H]-vinblastine binding, single representative experiment, Figure 7B, 5 nM [3H]-vinblastine.

SMILES strings stand for the structures. Entries after “also recorded” stand apart in the source; their conditions may differ. Where two headings read alike, the source gives them in different places.

T1 sequence (P08183 whole entry): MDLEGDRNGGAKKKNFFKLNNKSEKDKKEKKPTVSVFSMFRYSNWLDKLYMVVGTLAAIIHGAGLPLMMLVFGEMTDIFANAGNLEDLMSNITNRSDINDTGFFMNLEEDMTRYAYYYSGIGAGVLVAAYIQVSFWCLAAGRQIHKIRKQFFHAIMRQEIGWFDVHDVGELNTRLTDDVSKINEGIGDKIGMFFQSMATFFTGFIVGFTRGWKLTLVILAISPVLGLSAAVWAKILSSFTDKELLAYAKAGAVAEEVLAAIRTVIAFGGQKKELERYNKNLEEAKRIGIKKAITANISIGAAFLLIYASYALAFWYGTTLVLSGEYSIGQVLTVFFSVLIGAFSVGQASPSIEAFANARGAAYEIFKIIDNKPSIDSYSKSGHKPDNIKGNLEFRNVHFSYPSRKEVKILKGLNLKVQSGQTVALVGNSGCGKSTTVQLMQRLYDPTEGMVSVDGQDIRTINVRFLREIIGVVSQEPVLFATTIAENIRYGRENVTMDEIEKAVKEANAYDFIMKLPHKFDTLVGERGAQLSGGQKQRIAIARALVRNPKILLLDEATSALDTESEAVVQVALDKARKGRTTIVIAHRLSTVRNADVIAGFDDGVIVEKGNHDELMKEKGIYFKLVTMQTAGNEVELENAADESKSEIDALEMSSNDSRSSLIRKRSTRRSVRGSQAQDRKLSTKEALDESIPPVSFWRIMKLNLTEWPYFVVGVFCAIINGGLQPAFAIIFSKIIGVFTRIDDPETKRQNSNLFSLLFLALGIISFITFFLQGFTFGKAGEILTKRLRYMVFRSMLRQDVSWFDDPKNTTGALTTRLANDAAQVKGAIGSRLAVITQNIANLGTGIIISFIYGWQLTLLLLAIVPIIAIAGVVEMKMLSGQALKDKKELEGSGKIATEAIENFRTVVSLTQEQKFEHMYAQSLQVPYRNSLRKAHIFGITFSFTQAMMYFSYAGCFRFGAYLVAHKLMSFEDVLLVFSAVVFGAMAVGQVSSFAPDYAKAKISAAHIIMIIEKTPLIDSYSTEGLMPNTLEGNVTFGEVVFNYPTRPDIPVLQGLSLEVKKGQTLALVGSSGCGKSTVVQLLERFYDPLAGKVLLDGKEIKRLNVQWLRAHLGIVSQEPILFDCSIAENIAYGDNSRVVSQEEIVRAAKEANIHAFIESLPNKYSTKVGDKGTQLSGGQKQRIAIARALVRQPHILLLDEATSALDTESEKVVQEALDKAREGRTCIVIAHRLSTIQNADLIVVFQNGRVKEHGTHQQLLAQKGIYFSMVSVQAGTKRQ
Sequence of P-gp (P08183 whole entry): as above

As to `CO[C@@H]1[C@H](N(C)C(=O)c2ccccc2)C[C@H]2O[C@]1(C)n1c3ccccc3c3c4c(c5c6ccccc6n2c5c31)C(=O)NC4` [CGP 41251], the “Ratio of EC50s (50% FCS vs 10% FCS) in presence of P-gp inhibitor” value in the data set with MCF-7/ADR cells (MCF-7/ADR, taxol, MTT 72 h) stood at 30 fold.
For `COC(=O)C1=C(C)NC(C)=C(C(=O)OCCCN2CCC(c3ccccc3)(c3ccccc3)CC2)[C@@H]1c1cccc([N+](=O)[O-])c1` [Dexniguldipine], in the data set on MCF-7/ADR cells, the “Ratio of EC50s (50% FCS vs 10% FCS) in presence of P-gp inhibitor” value amounted to 37 fold.
With `COc1cc2c(cc1OC)CN(CCc1ccc(NC(=O)c3cccc4c(=O)c5cccc(OC)c5[nH]c34)cc1)CC2` [GF120918], the “Cytotoxic effect of GF120918 alone” value in the data set with MES-Dx5 cells [1] (MTT assay) is listed as “did not produce a cytotoxic effect”. Also, the EC50 with MES-Dx5 cells [2] (read-out: EC50 of GF120918 to reverse resistance (shifts sensitivity by 50%) to doxorubicin, cytotoxic doxorubicin) was determined as 0.021 ± 0.006 µM; in the data set on MES-Dx5 cells [2] (read-out: EC50 of GF120918 to reverse resistance (shifts sensitivity by 50%) to etoposide, cytotoxic etoposide), 0.007 ± 0.002 µM; in the data set on MES-Dx5 cells [2] (read-out: EC50 of GF120918 to reverse resistance (shifts sensitivity by 50%) to taxol, cytotoxic taxol) it was 0.091 ± 0.023 µM; with MES-Dx5 cells [2] (read-out: EC50 of GF120918 to reverse resistance (shifts sensitivity by 50%) to taxotere, cytotoxic taxotere) it was 0.057 ± 0.014 µM; with MES-Dx5 cells [2] (read-out: EC50 of GF120918 to reverse resistance (shifts sensitivity by 50%) to vinblastine, cytotoxic vinblastine), 0.019 ± 0.003 µM; in the data set with MES-Dx5 cells [3] (read-out: [GF120918] reverses accumulation-deficit by 50%, [3H]-taxol), […]. The EC50 in the data set with MES-Dx5 cells [3] (read-out: [GF120918] reverses accumulation-deficit by 50%, [3H]-vinblastine) is 0.048 µM; with MES-Dx5 cells [3] (read-out: [GF120918] reverses accumulation-deficit by 50%, [14C]-doxorubicin), […]; in the data set on P-gp [4], […]. In the data set on MES-Dx5 cells [2] (MES-Dx5, MTT assay), the “Lowest concentration exhibiting a measurable reversal of resistance” value amounted to […]. Moreover, in the data set with MES-Dx5 cells [2] (to level of parental MES-SA cells), the “Extent of reversal of MES-Dx5 resistance, all tested cytotoxic drugs” value was “reversed resistance completely; also recorded: fully reverse resistance”. In the data set with MES-SA cells [5], the “Effect on cellular content of radiolabelled cytotoxics in sensitive MES-SA cells” value is “did not increase”. Further, in the data set with COR-L23 R, the “Sensitization of COR-L23 R (MRP1, not P-gp) to doxorubicin” value is listed as “not sensitized”. Moreover, the “Concentration at which activity was consistently achieved in vitro” value with P-gp [6] is given as […]. Further, in data set [7], the “Sensitization of xenograft-bearing mice to doxorubicin” value was “sensitized mice”.
As to `C/C=C/C[C@@H](C)C(=O)[C@H]1C(=O)N[C@@H](C(C)C)C(=O)N(C)CC(=O)N(C)[C@@H](CC(C)C)C(=O)N[C@@H](C(C)C)C(=O)N(C)[C@@H](CC(C)C)C(=O)N[C@@H](C)C(=O)N[C@H](C)C(=O)N(C)[C@@H](CC(C)C)C(=O)N(C)[C@@H](CC(C)C)C(=O)N(C)[C@@H](C(C)C)C(=O)N1C` [PSC 833], the “Ratio of EC50s (50% FCS vs 10% FCS) in presence of P-gp inhibitor” value in the data set on MCF-7/ADR cells (MCF-7/ADR, taxol, MTT 72 h) was 19 fold.
`CC(=O)O[C@H]1C(=O)[C@@]2(C)[C@H]([C@H](OC(=O)c3ccccc3)[C@]3(O)C[C@H](OC(=O)[C@H](O)[C@@H](NC(=O)c4ccccc4)c4ccccc4)C(C)=C1C3(C)C)[C@]1(OC(C)=O)CO[C@@H]1C[C@@H]2O` [[3 H]-taxol]: in the data set with MES-Dx5 cells [3], the “Accumulation deficit of MES-Dx5 relative to parental MES-SA cells” value was 20%.
Broadly, the Kd is a measure of binding affinity in units of concentration. Turning to `CC[C@]1(O)C[C@@H]2CN(CCc3c([nH]c4ccccc34)[C@@](C(=O)OC)(c3cc4c(cc3OC)N(C)[C@H]3[C@@](O)(C(=O)OC)[C@H](OC(C)=O)[C@]5(CC)C=CCN6CC[C@]43[C@@H]65)C2)C1` [[3 H]-vinblastine], the “Bmax of [3H]-vinblastine binding in the presence of ATP and MgCl2” value in data set [8] (Figure 6, 1 mM ATP and 3 mM MgCl2, single experiment) was determined as 10.9 pmol mg-1 protein. For the same molecule, the “Bmax of [3H]-vinblastine binding, single representative experiment” value in [8] (Figure 6, control without ATP/MgCl2) was 8.6 pmol mg-1 protein. Further, the “Bmax of [3H]-vinblastine binding (mean)” value in data set [8] (MES-Dx5 membranes) was 5.2 pmol mg-1 protein; in [8] (MES-Dx5 membranes, listed as [^3H]-vinblastine), 5.2 ± 1.6 pmol mg-1 protein. On P-gp [9] (KD of [3H]-vinblastine binding, saturation analysis (mean)), this molecule had a Kd of 0.0078 ± 0.0014 µM.
As to `COc1cccc2c1C(=O)c1c(O)c3c(c(O)c1C2=O)C[C@@](O)(C(=O)CO)C[C@@H]3O[C@H]1C[C@H](N)[C@H](O)[C@H](C)O1` [[14 C]-doxorubicin], the “Accumulation deficit of MES-Dx5 relative to parental MES-SA cells” value in the data set with MES-Dx5 cells [3] was determined as 20%.
What is called Ki is the equilibrium dissociation constant of an inhibitor or competing ligand from its target. Lower therefore signals higher affinity. As for `COc1cccc2c1C(=O)c1c(O)c3c(c(O)c1C2=O)C[C@@](O)(C(=O)CO)C[C@@H]3O[C@H]1C[C@H](N)[C@H](O)[C@H](C)O1` [doxorubicin], the EC50 with MES-Dx5 cells [1] came out at 0.534 µM; with MES-SA cells [11], 0.058 µM. For the same molecule, the “Resistance of MCF-7/ADR cells” value in the data set on MCF-7/ADR cells is listed as 200 fold. The Ki in [10] (inhibition of [3H]-vinblastine binding to P-gp (mean), MES-Dx5 membranes, 21C) was found to be 6.94 ± 2.1 µM; in [10] (setting [14]), 112 µM.
For `COc1cc([C@@H]2c3cc4c(cc3[C@@H](O[C@@H]3O[C@@H]5CO[C@@H](C)O[C@H]5[C@H](O)[C@H]3O)[C@H]3COC(=O)[C@H]23)OCO4)cc(OC)c1O` [etoposide], the EC50 turned out to be 6.85 µM with MES-Dx5 cells [1] and 3 µM in the data set on MES-SA cells [11].
As for `CC(=O)O[C@H]1C(=O)[C@@]2(C)[C@H]([C@H](OC(=O)c3ccccc3)[C@]3(O)C[C@H](OC(=O)[C@H](O)[C@@H](NC(=O)c4ccccc4)c4ccccc4)C(C)=C1C3(C)C)[C@]1(OC(C)=O)CO[C@@H]1C[C@@H]2O` [taxol], the EC50 with MES-Dx5 cells [1] came to 0.47 µM; in the data set with MCF-7/ADR cells (read-out: EC50 of taxol without inhibitor, 10% FCS, MCF-7/ADR, MTT 72 h), 8.5 µM; with MCF-7/ADR cells (read-out: EC50 of taxol without inhibitor, 50% FCS, MCF-7/ADR, MTT 72 h), 4.6 µM; with MCF-7 WT cells [13] (read-out: EC50 of taxol without inhibitor, 10% FCS), 0.006 µM; in the data set with MCF-7 WT cells [13] (read-out: EC50 of taxol without inhibitor, 50% FCS) it was 0.005 µM; in the data set with MES-SA cells [11], 0.005 µM. Moreover, in the data set on MES-Dx5 cells [1], the “Resistance factor (RF) of MES-Dx5 relative to MES-SA cells” value was 94 fold. In addition, the “Resistance of MCF-7/ADR cells” value with MCF-7/ADR cells is 1000 fold. The “Maximal displacement of [3H]-vinblastine bound to P-gp” value in data set [8] (MES-Dx5 membranes, allosteric inhibitor) was 40%. Besides, the “Ratio of EC50s (50% FCS vs 10% FCS), taxol without inhibitor” value in the data set with MCF-7 WT cells [12] came out at 0.84. This molecule gave an inhibition constant (Ki) at 3 h on P-gp [9] (probe [3H]-vinblastine, Ki, inhibition of [3H]-vinblastine binding to P-gp (mean), 3 h, 21C) of 0.4 ± 0.14 µM. For the same molecule, the Ki in data set [10] (setting [14]) was 0.096 µM.
As for `CC(=O)O[C@@]12CO[C@@H]1C[C@H](O)[C@@]1(C)C(=O)[C@H](O)C3=C(C)[C@@H](OC(=O)[C@H](O)[C@@H](NC(=O)OC(C)(C)C)c4ccccc4)C[C@@](O)([C@@H](OC(=O)c4ccccc4)[C@H]21)C3(C)C` [taxotere], in the data set on MES-Dx5 cells [1], the EC50 was 0.093 µM and the “Resistance factor (RF) of MES-Dx5 relative to MES-SA cells” value stood at 19 fold. Further, the EC50 in the data set with MES-SA cells [11] amounted to 0.005 µM.
Turning to `CC[C@]1(O)C[C@@H]2CN(CCc3c([nH]c4ccccc34)[C@@](C(=O)OC)(c3cc4c(cc3OC)N(C)[C@H]3[C@@](O)(C(=O)OC)[C@H](OC(C)=O)[C@]5(CC)C=CCN6CC[C@]43[C@@H]65)C2)C1` [vinblastine], the EC50 in the data set on MES-Dx5 cells [1] is 0.03 µM; with MES-SA cells [11] it was 0.003 µM.

These data come from article PMC2362940 (British Journal of Cancer, 1999).
